{"source": "patent US6143719A", "about": "“Bradykinin analogs as selective thrombin inhibitors” (The Regents of the University of Michigan, priority 1996, dated 2000)", "key": {"platelets": {"test_system": "platelets", "type": "cell-based, human", "details": "washed platelets, α-thrombin 1 nM", "procedure": "Fresh whole blood was collected and mixed with 0.013 M sodium citrate and platelet-rich plasma was prepared according to the method of Meloni et al., J. Biol. Chem. 266, 6786, 1991. Washed platelets were prepared by gel filtration over Sepharose 2B columns in Hepes-Tyrode's buffer (0.137 M NaCl, 3 mM KCl, 0.4 mM Na H2 PO4, 12 mM NaHCO3, 1 mM MgCl2, 14.7 mM Hepes containing 20 mM glucose and 0.2% bovine serum albumin, pH 7.35). Platelets for aggregation and secretion studies were incubated according to the method of Schmaier et al., Blood 56, 1013, 1980 with 5-[^14 C]hydroxytryptamine for 30 min at 37° C. The washed platelets (2×10^8 /ml, final concentration radiolabeled with 5-[^14 C]hydroxytryptamine) were added to a cuvette of an aggregometer (Chronolog Corp., Havertown, Pa.), standardized using the protocol of Meloni et al., supra. After the addition of ZnCl2, final concentration 50 μM, purified HK (1 μM) or various concentrations of the peptides (0.1 to 3 mM) or buffer alone was added to the cuvette. Once the baseline stabilized, α-thrombin [0.125 U/ml (1 nM) final concentration] was then added to initiate platelet activation. Stirred platelets were allowed to incubate with o-thrombin and additions for 1 min. In other experiments, platelets were stimulated with TRAP (0.625 to 2.5 μM), ADP (1-5 μM)(Sigma), collagen (1.25 μg/ml) (Horm, Munich, Germany), or U-46619 (1 μM)(Calbiochem Behring, San Diego, Calif.). Additional experiments were performed with washed platelets stimulated with γ-thrombin (1 nM) in the presence of human fibrinogen (100 mg/dl). Both γ-thrombin and human fibrinogen were purchased from Enzyme Research Laboratories, South Bend, Ind. At the conclusion of the incubation, the entire platelet sample was centrifuged at 10,900 xg (Model E, Beckman Instruments, Palo Alto, Calif.) over a 0.135 mM formaldehyde, 5 mM EDTA solution (1 part of formaldehyde-EDTA to 4 parts of platelet suspension) and stored on ice until an aliquot of the supernatant was assayed for 5-[^14 C]hydroxytryptamine secretion. Percent secretion was determined by the ratio of the loss of 5-[^14 C]hydroxytryptamine in the supernatant of the agonist-treated specimen to the loss of 5-[^14 C]hydroxytryptamine in the supernatant of the platelet lysate after the value of the control supernatant (i.e., the level of 5-[^14 C]hydroxytryptamine in a unstimulated sample) was subtracted from both."}, "human platelets": {"test_system": "human platelets", "type": "cell-based", "procedure": "The cytoplasmic free Ca^2+ concentration ([Ca^2+ ]i) was measured using the fluorescent Ca^2 + indicator fura-2 (Molecular Probes, Inc., Eugene, Oreg.). Gel filtered platelets in Hepes-Tyrode's buffer were loaded with fura-2 by incubation at 37° C. with 1 μM fura-2/acetoxymethyl ester for 45 min according to the method of Rasmussen et al., J. Biol. Chem. 268, 14322 (1993). The labeled platelets were then re-gel filtered to remove any excess probe. Aliquots of the labeled platelet suspension were transferred into a quartz cuvette with a magnetic stirrer, which was then placed in a thermostatically controlled chamber at 37° C. in a fluorescence spectrophotometer (Dual Wave Length Shimazdu SP5000 Spectrofluorometer, Shimazdu USA, Pittsburgh, Pa.). Reagents were directly added to the cuvette. The excitation wave lengths varied between 340 and 380 nm. The fluorescence was measured by recording emitted light at 510 nm as reported by Fisher et al, Mol. Pharm. 35, 195 (1989). The minimum emission was determined on a 20 mM digitonin, 10 mM EGTA solubilized platelet sample; maximum emission was determined on the same sample with 10 mM Ca^2+ added. The intraplatelet free Ca^2+ concentration was calculated by the method of Grykiewicz et al., J. Biol. Chem. 260, 3440 (1985). The ratio of the fluorescence readings was calculated as R=340/380 nm and processed according to the equation [Ca^2+ ]i =KD ((R-Rmin)/Rmax -R))(Sf2 /Sb2) to determine the intraplatelet free Ca^2+ concentration. The KD for fura-2 was assumed to be 224 nM. Rmax and Rmin are the maximum and minimum fluorescence ratios measured at the end of the experiment, respectively; Sf2 and Sb2 are the fluorescence values at 380 nm in the absence and presence of saturating [Ca^2+ ], respectively."}}, "note": "Like-named read-outs stand apart in the source and are kept apart here. Ends that are not written are not given here.", "data": [{"sequence": "RPPGFSPFR [BK, bradykinin]", "values": [{"measurement": "IC50", "setting": "platelets; read-out: IC50 AGGREGATION (inhibition of α-thrombin-induced platelet aggregation)", "result": 250, "unit": "µM"}, {"measurement": "IC50", "setting": "platelets; read-out: IC50 SECRETION (inhibition of α-thrombin-induced platelet secretion)", "result": 1000, "unit": "µM"}, {"measurement": "inhibition of α-thrombin-induced calcium mobilization", "setting": "human platelets; FIG. 2, concentration not given", "result": "block"}, {"measurement": "IC50", "setting": "human platelets; gel filtered platelets, read-out: IC50, α-thrombin-induced Ca2+ mobilization", "result": 230, "unit": "µM"}]}]}
